Assays:
[1] = Pharmacokinetics and oral bioavailability in the mouse; format: in vivo; conditions: 10 mg/kg, oral vs IV dose-normalized AUC
[2] = system: Capan-1 human pancreatic cancer tumors; test: In vivo efficacy as single agent, Capan-1 BRCA-2 mutated mouse model; conditions: 75 mg/kg oral, daily (schedule 1-8 or 1-10)
From the text: Balb, athymic Nu/Nu male mice, from Harlan (Italy), were maintained in agreement with the European Communities Council Directive no. 86/609/EEC concerning the protection of animals used for experimental or other scientific purposes, in cages with paper filter cover, food and bedding sterilized and acidified water. Fragments of Capan-1 human pancreatic cancer tumors were implanted subcutaneously. […] Each group included seven animals. The treatment started one day after randomization. Compound of formula (I) was administered by oral route as a methocel suspension at the indicated doses and times. Tumor dimension was measured regularly by calipers during the experiments and tumor mass was calculated as described in Simeoni M. et al., Cancer Res 64, 1094-1101 (2004).

[3] = system: BRCA-mutated breast, ovarian and prostate cancer; conditions: 19 patients with BRCA mutations and breast; cited from earlier work

Compound | F on AUC [1] [%] | Max TGI (%) [2] [%] | objective response rate [3] [%]
NC(=O)c1cccc2c1C(=O)N(CCN1CCc3ccccc3C1)C2 [(3), 2-[2-(3,4-dihydro-1H-isoquinolin-2-yl)-ethyl]-3-oxo-2,3-dihydro-1H-isoindole-4-carboxylic acid amide] | 30 |  | 
NC(=O)c1cccc2c1C(=O)N(C1CCN(C3CCCCC3)CC1)C2 [(11), 2-(1-cyclohexyl-piperidin-4-yl)-3-oxo-2,3-dihydro-1H-isoindole-4-carboxylic acid amide] | 100 | 42 | 
NC(=O)c1cccc2c1C(=O)N(C1CCN(Cc3ccoc3)CC1)C2 [(14), 2-(1-furan-3-ylmethyl-piperidin-4-yl)-3-oxo-2,3-dihydro-1H-isoindole-4-carboxylic acid amide] | 57 |  | 
NC(=O)c1cccc2c1C(=O)N(C1CCN(Cc3ccccn3)CC1)C2 [(15), 3-oxo-2-(1-pyridin-2-ylmethyl-piperidin-4-yl)-2,3-dihydro-1H-isoindole-4-carboxylic acid amide] | 68 | 54 | 
NC(=O)c1cccc2c1C(=O)N(C1CCN(Cc3ccc[nH]3)CC1)C2 [(16), 3-oxo-2-[1-(1H-pyrrol-2-ylmethyl)-piperidin-4-yl]-2,3-dihydro-1H-isoindole-4-carboxylic acid amide] | 37 |  | 
O=C(c1cc(Cc2n[nH]c(=O)c3ccccc23)ccc1F)N1CCN(C(=O)C2CC2)CC1 [Olaparib] |  |  | 47

— patent publication US11420940B2, “4-carboxamido-isoindolinone derivatives as selective parp-1 inhibitors” (NERVIANO MEDICAL SCIENCES S.r.l, priority 2012, dated 2022)
